This passage reports CC50 and EC50 results from patent US9907860B2, “Conjugated molecules comprising a peptide derived from the CD4 receptor coupled to an anionic polypeptide for the treatment of AIDS” (INSTITUT PASTEUR, priority 2014, dated 2018).

Data set [1] in a line: Cytotoxic activity, WST-1 cell proliferation assay. In kind it is cell-based. As to conditions: human. As for the experimental part: Cytotoxicity was determined using the water-soluble tetrazolium-1 (WST-1) cell proliferation assay, which is based on the cleavage of the tetrazolium salt WST-1 to a formazan dye by cellular dehydrogenases. Because this bioreduction is dependent on the glycolytic production of NAD(P)H in viable cells, the amount of formazan dye formed is correlated directly to the number of viable cells in a culture. Quantification is performed by measuring absorbance at 450 nm in a multiwell plate reader. An amount of 10^4 cells was plated per well in a 96-well plate, and a serial dilution of compound was added. Forty eight hours later, cell proliferation reagent was added and cell viability was measured compared to untreated control cultures. Cell viability was plotted against the compound concentration, and nonlinear regression analysis was performed to evaluate the 50% cytotoxic concentration (CC50).
The miniCD4 conjugates were then evaluated for their cytotoxic activity according to the protocol described above. All cytotoxic results are reported in the table below in the form of CC50 values (nM).
(Formazan colour is commonly taken as a measure of viable cells.)

The test system of data set [2] is SHIV162p3 viral strain (B-R5). The experiment in a line: Antiviral activity on TZM-bl cells, SHIV162p3 strain. It counts as cell-based. As to conditions: luciferase, 48 h, clade-tropism B-R5. As for the experimental part:
(§1) The antiviral activity of the tested compounds was determined by pre-incubating 10^4 TZM-bl cells/well in a 96-well plate for 30 min at 37° C. and 5% CO2 with or without a serial dilution of the compound. Next, 200 TCID50 of viruses were added to each well and cultures were incubated for 48 h before luciferase activity was quantified. Each compound was tested in triplicate in a single experiment. Antiviral activity was expressed as the percentage of viral inhibition compared to the untreated control and plotted against the compound concentration. Next, non-linear regression analysis was used to calculate the 50% effective concentration (EC50).
(§2) The miniCD4 conjugates were then evaluated for their antiviral activity on TZM-bl cells that express Luciferase under the control of the HIV LTR (collaboration G. Vanham, Anvers) according to the protocol described above. All antiviral results are reported in the table below in the form of EC50 values (nM).

For data set [3], the system named is Ca10-3 (CRF01) viral strain (AE-X4). The experiment in a line: microbe, parasite or virus in culture. It counts as cell-based, HIV. As to conditions: Human immunodeficiency virus 1, TZM-bl, 48 h, read-out: EC50, viral strain Ca10-3 (CRF01). The method, then: as §1, §2
A further data set has as its system Bal viral strain (B-R5). The experiment in a line: microbe, parasite or virus in culture. In kind it is cell-based, HIV. As to conditions: Human immunodeficiency virus 1, BAL; TZM-bl cells, luciferase, 48 h; clade-tropism B-R5. As for the experimental part: as §1, §2
For another data set, the system named is MN viral strain (B-X4). The experiment in a line: microbe, parasite or virus in culture. It counts as cell-based, HIV. As to conditions: Human immunodeficiency virus 1; TZM-bl cells, luciferase, 48 h; clade-tropism B-X4. As for the experimental part:
as §1, §2

Data set [4] relates to VI824 viral strain (D-R5). The data set is described as follows: microbe, parasite or virus in culture. In kind it is cell-based, HIV. As to conditions: Human immunodeficiency virus 1, TZM-bl, 48 h, read-out: EC50, viral strain VI824. As for the experimental part: as §1, §2
A further data set concerns IIIB viral strain (B-X4). The experiment in a line: microbe, parasite or virus in culture. In kind it is cell-based, HIV. As to conditions: Human immunodeficiency virus 1, IIIB; TZM-bl cells, luciferase, 48 h; clade-tropism B-X4. As for the experimental part: as §1, §2
The test system of data set [5] is pREJO.c/2864 cl2 viral strain (B-R5). The experiment in a line: microbe, parasite or virus in culture. In kind it is cell-based, HIV. As to conditions: Human immunodeficiency virus 1, TZM-bl, 48 h, read-out: EC50, viral strain pREJO.c/2864 cl2. As for the experimental part: as §1, §2
Data set [6] deals with p246F10 viral strain (C-R5). The data set is described as follows: microbe, parasite or virus in culture. It counts as cell-based, HIV. As to conditions: Human immunodeficiency virus 1, TZM-bl, 48 h, read-out: EC50, viral strain p246F10. The method, then: as §1, §2
Data set [7] relates to VI820 viral strain (A-X4R5). The data set is described as follows: microbe, parasite or virus in culture. In kind it is cell-based, HIV. As to conditions: Human immunodeficiency virus 1, TZM-bl, 48 h, read-out: EC50, viral strain VI820. The method, then: as §1, §2
In data set [8] the test system is VI829 viral strain (C-R5). The experiment in a line: microbe, parasite or virus in culture. It counts as cell-based, HIV. As to conditions: Human immunodeficiency virus 1; TZM-bl cells, luciferase, 48 h; clade-tropism C-R5. As for the experimental part:
as §1, §2

Data set [9] relates to SF162 viral strain (B-R5). The data set is described as follows: microbe, parasite or virus in culture. In kind it is cell-based, HIV. As to conditions: Human immunodeficiency virus 1; TZM-bl cells, luciferase, 48 h; clade-tropism B-R5. The method, then: as §1, §2
For data set [10], the system named is VI1888 (CRF01) viral strain (AE-R5). The experiment in a line: microbe, parasite or virus in culture. It counts as cell-based, HIV. As to conditions: Human immunodeficiency virus 1, TZM-bl, 48 h, read-out: EC50, viral strain VI1888 (CRF01). The method, then: as §1, §2
Data set [11] relates to MP568 (CRF02) viral strain (AG-R5). The data set is described as follows: microbe, parasite or virus in culture. It counts as cell-based, HIV. As to conditions: Human immunodeficiency virus 1, TZM-bl, 48 h, read-out: EC50, viral strain MP568 (CRF02). As for the experimental part:
as §1, §2

One may read the CC50 as the concentration at which the toxic effect on the cells reaches its halfway point. As for `Cc1cc(C)c(Nc2ccnc(Nc3ccc(C#N)cc3)n2)c(C)c1` [Dapivirine (TMC120), Dapivirine], in data set [1], the midpoint of cytotoxicity, the CC50 at 48 h, lay at 2520 nM. For the same compound, the EC50 in data set [2] was over 1000 nM; in data set [3], 1.3 nM; in the data set with Bal viral strain (B-R5), 1.65 nM; in the data set on MN viral strain (B-X4) it was 1.5 nM; in data set [4] it was 1.2 nM; in the data set on IIIB viral strain (B-X4) it was 0.84 nM. Further, the EC50 in [5] came out at 1.6 nM; in data set [6], 1.4 nM; in data set [7], 1.95 nM; in data set [8], 1.3 nM; in [9] it was 1.3 nM; in data set [10], 2.1 nM. In addition, the EC50 in data set [11] turned out to be 1.1 nM.
